Common to all, as to type: cell-based
Assay [1] has as its system BG-1 ovarian carcinoma cells. The assay can be described thus: Inhibition of BG-1 ovarian carcinoma cell proliferation. The conditions noted are these: 0.1 nM 17β-estradiol-dependent growth, 72 h, 3H-thymidine incorporation. The protocol:
BG-1 cells serve as a useful in vitro model for the evaluation of the effects of antiestrogenic compounds on ovarian tumor growth (Greenberger, L. M. et. al., Clin. Cancer Res. 7:3166-3177, 2001). Benzopyranone compounds having an IC50<100 nM are particularly useful as anti-ovarian cancer agents in vivo.
BG-1 ovarian carcinoma cells were plated in 24-well dishes at a density of 5×10^3 cells/well in phenol-red free DMEM:F-12 (1:1) medium containing 1% antibiotics, 0.05% mercaptoethanol, 0.01% ethanolamine, 0.42 ng/mL sodium selenite and 5% charcoal-stripped FCS. Illustrative benzopyranone compounds (0.1-1000 nM in 0.2% DMSO) and 0.1 nM 17β-estradiol were added to the cultured BG-1 ovarian carcinoma cells and incubated for 72 h. Subsequently, ^3H-labeled thymidine was added and its incorporation into cells was measured following 4h incubation. The results are expressed as IC50 (nM) values (Table 2) which is the concentration of the benzopyranone compound necessary to inhibit the growth of BG-1 ovarian carcinoma cells by 50% relative to controls.
Background: Incorporation of labelled thymidine or its analogues reports DNA synthesis.

Assay [2] deals with MCF-7 breast cancer cells. The assay can be described thus: Inhibition of MCF-7 breast cancer cell proliferation. As to conditions: Homo sapiens, MCF7; 0.1 nM 17β-estradiol-dependent growth, 72 h, 3H-thymidine incorporation. The protocol: MCF-7 cells represent an excellent in vitro system to study the effects of compounds on estrogen-dependent breast cancer growth. (May, F.E.B.; Westley, B. R. J. Biol. Chem. 262:15894-15899, 1987). Benzopyranone compounds having an IC50<100 nM are particularly useful as anti-breast cancer agents in vivo.
MCF-7 breast carcinoma cells were plated in 24-well dishes at a density of 5×10^3 cells/well in phenol-red free DMEM:F-12 (1:1) medium containing 1% antibiotics, 0.05% mercaptoethanol, 0.01% ethanolamine, 0.42 ng/mL sodium selenite and 5% charcoal-stripped FCS.
Illustrative benzopyranone compounds (0.1-1000 nM in 0.2% DMSO) and 0.1 nM 17β-estradiol were added to the cultured MCF-7 breast cancer cells for 72 h. Subsequently, 3H-labeled thymidine was added and its incorporation into cells was measured following 4h incubation. The results are expressed as IC50 (nM) values (Table 2) which is the concentration of the benzopyranone compound necessary to inhibit the growth of MCF-7 breast cancer cells by 50% relative to controls.

Assay [3] relates to IL-6 release from human U-2 OS osteosarcoma cells stably transfected with human ER-α. The assay is described as follows: Inhibition of IL-6 release. The conditions noted are these: U2OS; U-2 OS cells transfected with human ER-α, stimulated with 2.5 ng/ml TNFα and 1 ng/ml IL-1, IL-6 by ELISA after 24 h, relative to vehicle. The protocol:
Illustrative benzopyranone compounds were tested for their ability to inhibit IL-6 release from human U-2 OS osteosarcoma cells stably transfected with human ER-α. (Stein, B.; Yang, M. X. Mol. Cell. Biol 15: 4971-4979, 1995; Poli, V. et. al., EMBO J. 13:1189-1196, 1994). […] Benzopyranone compounds having an IC50<100 nM are particularly useful as bone resorption inhibitors in vivo. Accordingly, the compounds of this assay, illustrative benzopyranone compounds, are particularly useful for the treatment of osteoporosis, Paget's disease and metastatic bone cancer. These compounds are also useful as anti-cancer agents as elevated IL-6 levels are responsible for certain cancers such as multiple myeloma, prostate cancer, ovarian cancer, renal carcinoma and cervical carcinoma.
Human U-2 OS osteosarcoma cells (ATCC) were stably transfected with expression vectors for human full-length ER-α using standard molecular biology techniques. Stable subclones were generated that expressed high levels of ER-α mRNA. The expression of ER-α was confirmed using RNase protection analysis.
Cells were plated into 96-well plates at a density of 80,000 cells per well in phenol red-free media with charcoal-stripped fetal calf serum. Twenty four hours later, cells were either treated with vehicle (0.2% DMSO) or test compound (0.01 B 100 nm in 0.2% DMSO). Thirty minutes later cells were stimulated with 2.5 ng/ml TNFα and 1 ng/ml IL-1. Twenty-four hours later the media supernatant was analyzed for cytokine production (IL-6) using commercially available ELISA kits following the manufacturer=s instructions. Cytokine production in the presence of vehicle (0.2% DMSO) was set to 100%. The results are expressed as IC50 (nM) values (Table 2) which is the concentration of the benzopyranone compound necessary to inhibit the production of IL-6 50% relative to the amount of IL-6 produced in the presence of vehicle.
Background: An ELISA detects its analyte on a solid surface through an enzyme-linked reagent.

The source of these data is patent US20070015817A1, “4-((4-(2-pyrrolidinylethoxy)phenyl)methyl)-3-(4-(trifluoromethyl)phenyl)-7-hydroxychromen-2one, pharmaceutically acceptable salts thereof and methods of use therewith” (priority 2002, published 2007).

The IC50 is the concentration needed to halve the response being measured.

On to `O=c1oc2cc(O)ccc2c(Cc2ccc(OCCN3CCCC3)cc2)c1-c1ccc(C(F)(F)F)cc1`, for which the figures for the IC50 in assay [1], in assay [2] and in assay [3] were 13.6 nM, 13.6 nM and 1.5 nM, respectively.

Take `O=c1oc2cc(O)ccc2c(Cc2ccc(OCCN3CCCC3)cc2)c1-c1ccc(C(F)(F)F)cc1Cl`: the IC50 in assay [1] amounted to 4.65 nM; in assay [2] it was 4.5 nM; in assay [3], 0.5 nM.

`O=c1oc2cc(O)ccc2c(Cc2ccc(OCCN3CCCC3)cc2)c1-c1ccc(C(F)(F)F)cc1C(F)(F)F`: the IC50 in assay [1] was determined as 5.5 nM; in assay [2], 26 nM; in assay [3], 1 nM.

For `O=c1oc2cc(O)ccc2c(Cc2ccc(OCCN3CCCC3)cc2)c1-c1ccc(Cl)cc1C(F)(F)F`, the values for the IC50 in assay [1], in assay [2] and in assay [3] were 2.3 nM, 3 nM and 0.4 nM, respectively.

For the molecule `O=c1oc2cc(O)ccc2c(Cc2ccc(OCCN3CCCC3)cc2)c1-c1ccc(Cl)cc1`, the results for the IC50 in assay [1], in assay [2] and in assay [3] were 5.8 nM, 26 nM and 0.4 nM, respectively.

As for `O=c1oc2cc(O)ccc2c(Cc2ccc(OCCN3CCCC3)cc2)c1-c1ccc(Cl)cc1Cl`, the values for the IC50 in assay [1], in assay [2] and in assay [3] were 1.4 nM, 6.5 nM and 0.29 nM, respectively.
